In US20230000842A1, “METHODS OF TREATING CARTILAGE DISORDERS THROUGH INHIBITION OF CLK AND DYRK” (SAMUMED, LLC, priority 2019, published 2023):

Assays:
CLK2 kinase = CLK2 kinase (Homo sapiens, UniProt P49760); test: CLK2 kinase activity assay (Z-lyte FRET); format: biochemical; settings: Z-lyte Ser/Thr 6 peptide, 60 μM ATP, 1 h at room temperature;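 note: FRET read-out as coumarin to fluorescein emission ratio, unphosphorylated peptide as 0% and phosphorylated peptide as 100% controls, duplicate reactions, non-linear regression fit of dose-response curves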
Protocol: This is a non-radioactive assay using fluorescence resonance energy transfer (FRET) between coumarin and fluorescein to detect kinase activity which is represented as a ratio of coumarin emission/fluorescein emission.
The mixture was allowed to incubate with the representative compounds for one hour at room temperature. All reactions were performed in duplicate. Unphosphorylated (“0% Control”) and phosphorylated (“100% control”) forms of Ser/Thr 6 served as control reactions. Additionally, an 11-point dose-response curve of Staurosporine (1 μM top) was run to serve as a positive compound control.
After incubation, Development Reagent A was diluted in Development Buffer then added to the reaction and allowed to further incubate for one hour at room temperature.
Dose-response curves were generated and inhibitory concentration (IC50) values were calculated using non-linear regression curve fit in the Dotmatics' Studies Software (Bishops Stortford, UK).

[1] = test system: primary human mesenchymal stem cells (hMSCs); test: Chondrogenesis screening using primary human mesenchymal stem cells; format: cell-based; settings: Homo sapiens, Mesenchymal stem cells, hMSC chondrogenesis; for Emax: maximum activity relative to TGF-β3 (10 ng/mL) positive control, read-out: Max. Activity as % TGF-β3 activity; for EC50: concentration required to induce 50% levels of chondrogenesis with TGF-β3 as positive control, read-out: Conc (nM) of 50% TGF-β3 activity
Summary of the method: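 Primary hMSCs at passage 3–6 were treated across compound concentrations, with TGF-β3 as positive control. Chondrogenic nodule area per well was normalized to 3 DMSO wells on the same plate (fold over DMSO, 2–3 replicates). EC50, maximum activity and the dose reaching it were derived.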

CLK3 kinase = CLK3 kinase (Homo sapiens, UniProt P49761); test: CLK3 kinase activity assay (Z-lyte FRET); format: biochemical; settings: Z-lyte Ser/Thr 18 peptide, 156 μM ATP, 1 h at room temperature;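 note: kinase activity read as coumarin/fluorescein emission ratio by FRET, unphosphorylated peptide as 0% and phosphorylated peptide as 100% control, values from non-linear regression of dose-response curves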
[2] = test system: Wnt pathway activity (SW480 colon carcinoma cells stably expressing the Sp5-Luc reporter); test: Wnt pathway activity screening assay (Sp5-Luc reporter gene assay); settings: Homo sapiens, SW480, Table 4; SW480 cells stably expressing Sp5-Luc reporter, 10-point dose-response from 10 μM, 36 to 48 hours

CLK3 kinase, sequence (P49761 whole entry): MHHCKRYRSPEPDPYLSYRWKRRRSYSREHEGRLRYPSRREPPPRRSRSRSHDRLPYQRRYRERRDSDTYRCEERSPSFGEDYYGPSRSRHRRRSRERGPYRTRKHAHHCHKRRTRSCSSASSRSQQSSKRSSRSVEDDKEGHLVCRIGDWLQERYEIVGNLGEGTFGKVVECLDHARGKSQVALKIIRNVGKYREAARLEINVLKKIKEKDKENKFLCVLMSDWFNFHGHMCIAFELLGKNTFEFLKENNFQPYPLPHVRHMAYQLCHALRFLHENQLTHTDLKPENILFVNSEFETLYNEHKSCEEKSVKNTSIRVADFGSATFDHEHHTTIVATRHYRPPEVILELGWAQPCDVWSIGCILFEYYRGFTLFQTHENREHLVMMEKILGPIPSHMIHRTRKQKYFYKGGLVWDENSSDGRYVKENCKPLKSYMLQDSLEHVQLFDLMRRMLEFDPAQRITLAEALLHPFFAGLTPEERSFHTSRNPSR
CLK2 kinase, sequence (P49760 whole entry): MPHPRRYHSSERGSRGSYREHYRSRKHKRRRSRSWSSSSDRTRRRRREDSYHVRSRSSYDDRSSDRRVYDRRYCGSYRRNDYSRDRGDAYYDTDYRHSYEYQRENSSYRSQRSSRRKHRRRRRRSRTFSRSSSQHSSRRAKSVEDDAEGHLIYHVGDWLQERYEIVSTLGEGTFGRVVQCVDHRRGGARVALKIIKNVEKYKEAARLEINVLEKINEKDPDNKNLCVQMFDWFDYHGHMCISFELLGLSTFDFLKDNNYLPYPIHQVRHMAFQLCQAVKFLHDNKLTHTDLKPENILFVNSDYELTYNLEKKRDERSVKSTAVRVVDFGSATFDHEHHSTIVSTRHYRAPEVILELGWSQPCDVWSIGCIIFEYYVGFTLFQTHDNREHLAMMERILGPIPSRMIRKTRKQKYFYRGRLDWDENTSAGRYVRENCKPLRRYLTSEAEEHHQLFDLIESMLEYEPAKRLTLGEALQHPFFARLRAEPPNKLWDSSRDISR

Compound	EC50 (CLK2 kinase) [nM]	Emax [1] [%]	EC50 (CLK3 kinase) [nM]	EC50 [2] [nM]	EC50 [1] [nM]
CC(C)(C)C(=O)Nc1cncc(-c2cc3c(-c4cc5c(-c6ccncc6)cncc5[nH]4)n[nH]c3cn2)c1 [compound 392]	9	30.4	92	> 10000	
O=C(Nc1cncc(-c2ccc3[nH]nc(-c4cc5c(-c6ccncc6)nccc5[nH]4)c3c2)c1)C1CCCC1 [compound 395]	5	114	30	> 10000	
CN(C)Cc1cncc(-c2ccc3[nH]nc(-c4cc5c(-c6ccncc6)cncc5[nH]4)c3c2)c1 [compound 398]	3	17.8	56	1060	
CN(C)Cc1cncc(-c2cc3c(-c4cc5c(-c6ccncc6)cncc5[nH]4)n[nH]c3cn2)c1 [compound 399]	4	51.7	188	> 10000	30
CN(C)Cc1cncc(-c2cc3c(-c4cc5c(-c6ccncc6)ccnc5[nH]4)n[nH]c3cn2)c1 [compound 400]	12	33.4	180	> 10000	
FC1(F)CCN(Cc2cncc(-c3cnc4[nH]nc(-c5cc6c(-c7ccncc7)cccc6[nH]5)c4c3)c2)C1 [compound 401]	15	29.2	895	708	
FC1(F)CCN(Cc2cncc(-c3cnc4[nH]nc(-c5cc6c(-c7ccncc7)cncc6[nH]5)c4c3)c2)C1 [compound 402]	5	36.5	110	1510	
c1cc(-c2cncc3[nH]c(-c4n[nH]c5ccc(-c6cncc(CN7CCCCC7)c6)nc45)cc23)ccn1 [compound 403]	6	97.1	306	> 10000	10
Cc1ncc(-c2cnc3[nH]nc(-c4cc5c(-c6ccncc6)cncc5[nH]4)c3c2)n1C [compound 406]	3	194	227	> 10000	
Nc1cncc(-c2ccc3[nH]nc(-c4cc5c(-c6ccccn6)ccnc5[nH]4)c3c2)c1 [compound 407]	3	46.1	19	22.4	
O=C(CC1CCNCC1)Nc1cncc(-c2ccc3[nH]nc(-c4cc5c(-c6ccccn6)cccc5[nH]4)c3n2)c1 [compound 408]	2	8.03	32	1440	
FC1(F)CCN(Cc2cncc(-c3ccc4[nH]nc(-c5cc6c(-c7ccccn7)cccc6[nH]5)c4n3)c2)C1 [compound 409]	5	81.9	142	432	10
c1cncc(-c2ccc3[nH]nc(-c4cc5cnccc5[nH]4)c3c2)c1 [compound 410]	1	342	15	40	
c1cncc(-c2cnc3[nH]nc(-c4cc5cccnc5[nH]4)c3c2)c1 [compound 411]	5	11	351	1060	
c1cncc(-c2cc3c(-c4cc5cnccc5[nH]4)n[nH]c3cn2)c1 [compound 412]	2	62	88	133	30
c1cncc(-c2cc3c(-c4cc5cccnc5[nH]4)n[nH]c3cn2)c1 [compound 413]	4	27.6	5490	> 10000	
c1cncc(-c2ccc3[nH]nc(-c4cc5cccnc5[nH]4)c3n2)c1 [compound 414]	3	65.9	1360	> 10000	10
Cc1ccncc1-c1ccc2[nH]nc(-c3cc4ccncc4[nH]3)c2c1 [compound 415]	1	161	31	191	
Cc1ccncc1-c1cc2c(-c3cc4cnccc4[nH]3)n[nH]c2cn1 [compound 416]	3	61.4	61	389	10
Nc1cncc(-c2ccc3[nH]nc(-c4cc5cccnc5[nH]4)c3c2)c1 [compound 417]	3	35.5	73	102	
CCC(=O)Nc1cncc(-c2cnc3[nH]nc(-c4cc5cnccc5[nH]4)c3c2)c1 [compound 418]	2	16.9	41	960	

Compound	EC50 (CLK2 kinase) [nM]	Emax [1] [%]	EC50 (CLK3 kinase) [nM]	EC50 [2] [nM]	EC50 [1] [nM]
CC(C)C(=O)Nc1cncc(-c2cc3c(-c4cc5cnccc5[nH]4)n[nH]c3cn2)c1 [compound 419]	1	61.2	16	399	30
CCCCC(=O)Nc1cncc(-c2ccc3[nH]nc(-c4cc5cccnc5[nH]4)c3c2)c1 [compound 420]	11	34.1	344	324	
CCCCC(=O)Nc1cncc(-c2cnc3[nH]nc(-c4cc5cnccc5[nH]4)c3c2)c1 [compound 421]	3	30.8	83	1470	
CCCCC(=O)Nc1cncc(-c2cc3c(-c4cc5cnccc5[nH]4)n[nH]c3cn2)c1 [compound 422]	3	49.9	54	3570	
CC(C)CC(=O)Nc1cncc(-c2cc3c(-c4cc5cccnc5[nH]4)n[nH]c3cn2)c1 [compound 423]	21	40.4	6210	> 10000	
CC(C)(C)CC(=O)Nc1cncc(-c2cnc3[nH]nc(-c4cc5cnccc5[nH]4)c3c2)c1 [compound 424]	2	7.07	47	605	
CC(C)(C)CC(=O)Nc1cncc(-c2cc3c(-c4cc5cnccc5[nH]4)n[nH]c3cn2)c1 [compound 425]	3	58.8	56	1890	10
O=C(Nc1cncc(-c2cc3c(-c4cc5cnccc5[nH]4)n[nH]c3cn2)c1)C1CC1 [compound 426]	5	58.5	88	1540	30
O=C(Nc1cncc(-c2cc3c(-c4cc5cccnc5[nH]4)n[nH]c3cn2)c1)C1CC1 [compound 427]	9	17.7	9840	> 10000	
O=C(Nc1cncc(-c2ccc3[nH]nc(-c4cc5cnccc5[nH]4)c3c2)c1)C1CCC1 [compound 428]	2	213	19	75	
O=C(Nc1cncc(-c2ccc3[nH]nc(-c4cc5cccnc5[nH]4)c3c2)c1)C1CCCC1 [compound 429]	9	30.2	365	271	
O=C(Nc1cncc(-c2ccc3[nH]nc(-c4cc5ccncc5[nH]4)c3n2)c1)C1CCCC1 [compound 430]	7	50.3	147	2630	30
O=C(Nc1cncc(-c2cnc3[nH]nc(-c4cc5cccnc5[nH]4)c3c2)c1)C1CCCCC1 [compound 432]	17	28.5	2970	1260	
O=C(Nc1cncc(-c2cc3c(-c4cc5cnccc5[nH]4)n[nH]c3cn2)c1)C1CCCCC1 [compound 433]	3	59.4	62	1620	30
O=C(Cc1ccccc1)Nc1cncc(-c2ccc3[nH]nc(-c4cc5cnccc5[nH]4)c3c2)c1 [compound 434]	5	119	189	1760	
O=C(Nc1cncc(-c2cnc3[nH]nc(-c4cc5cnccc5[nH]4)c3c2)c1)c1ccccc1 [compound 435]	2	69.9	46	> 10000	30
O=C(Nc1cncc(-c2cc3c(-c4cc5cnccc5[nH]4)n[nH]c3cn2)c1)c1ccccc1 [compound 437]	2	152	62	580	10
CCNCc1cncc(-c2ccc3[nH]nc(-c4cc5ccccc5[nH]4)c3c2)c1 [compound 438]	4	532	269	395	10
CCNCc1cncc(-c2ccc3[nH]nc(-c4cc5cnccc5[nH]4)c3c2)c1 [compound 439]	2	317	49	1040	
CCNCc1cncc(-c2ccc3[nH]nc(-c4cc5cccnc5[nH]4)c3n2)c1 [compound 440]	3	79.9	562	3760	10
CN(C)c1cncc(-c2cc3c(-c4cc5cnccc5[nH]4)n[nH]c3cn2)c1 [compound 441]	5	101	538	3060	300
